Measured values reported in patent publication US9862724B2, “Pyrazolo[1,5-a]pyrimidine-based compounds, compositions comprising them, and methods of their use” (LEXICON PHARMACEUTICALS, INC., priority 2013, dated 2018).
pIC50: −log10 of the molar value. Like-named read-outs stand apart in the source and are kept apart here.

Legend:
[1] = target: T1, AAK1 (full-length human protein) (Homo sapiens, UniProt Q2M2I8); experiment: P81 filter plate assay; assay type: biochemical; conditions: 0.2 nM 2x AAK1, Mu2 substrate, 33P-ATP; class symbols
T1 construct: NP_055726.2
T1 sequence (Q2M2I8 1-863 isoform Q2M2I8-2): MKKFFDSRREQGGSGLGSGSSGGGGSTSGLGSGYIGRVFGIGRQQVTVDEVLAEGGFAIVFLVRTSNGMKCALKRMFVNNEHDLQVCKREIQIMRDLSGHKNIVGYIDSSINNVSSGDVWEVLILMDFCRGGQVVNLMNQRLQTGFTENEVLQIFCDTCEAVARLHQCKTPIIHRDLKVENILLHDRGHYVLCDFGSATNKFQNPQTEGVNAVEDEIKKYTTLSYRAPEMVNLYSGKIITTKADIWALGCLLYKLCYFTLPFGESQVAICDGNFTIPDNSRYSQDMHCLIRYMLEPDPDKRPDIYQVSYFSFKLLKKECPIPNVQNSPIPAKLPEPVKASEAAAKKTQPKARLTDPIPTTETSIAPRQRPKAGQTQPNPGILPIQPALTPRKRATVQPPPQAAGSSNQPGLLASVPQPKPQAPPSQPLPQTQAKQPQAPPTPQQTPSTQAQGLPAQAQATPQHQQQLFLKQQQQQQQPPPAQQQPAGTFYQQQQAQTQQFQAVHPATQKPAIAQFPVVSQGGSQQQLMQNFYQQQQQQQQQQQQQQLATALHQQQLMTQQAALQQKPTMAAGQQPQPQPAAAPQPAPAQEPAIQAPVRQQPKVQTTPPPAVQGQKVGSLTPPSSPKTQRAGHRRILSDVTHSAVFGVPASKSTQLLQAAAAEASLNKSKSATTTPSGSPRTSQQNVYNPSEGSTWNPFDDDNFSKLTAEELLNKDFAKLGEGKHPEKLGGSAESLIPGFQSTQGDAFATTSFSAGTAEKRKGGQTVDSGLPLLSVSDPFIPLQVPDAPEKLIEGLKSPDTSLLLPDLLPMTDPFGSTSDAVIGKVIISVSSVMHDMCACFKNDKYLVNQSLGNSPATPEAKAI
Protocol: Compounds were serially diluted into a Labcyte LDV plate (Labcyte, cat# LP-0200) using a Mutiprobe (PerkinElmer) and Biomek FX (Beckman Coulter) so that the highest compound concentration was at 96 μM. Compounds were then pinged (75 nL per well) into a Greiner 384-well reaction plate (Greiner, #781076) using an ECHO 550 Liquid Handler (Labcyte). A total of 12 μl reaction buffer (IMAP buffer containing Tween and DTT, from Molecular Devices) was then added to each well of columns 1 and 13 for the negative controls and 12 μl of 2×AAK1 (0.2 nM full-length human protein, NCBI accession no. NP_055726.2) was added to the remaining wells. Enzyme was then pre-incubated with compound for 10 minutes at RT. Reactions were initiated upon Minitrak (PerkinElmer) addition of 12 μl substrate mix containing 2×Mu2 (0.2 μM, full length human protein), 2× cold ATP (2 μM), and 1.3 μCi of hot ^33P-ATP. Reactions proceeded for one hour at RT. Meanwhile, Millipore 384-well P81 filter plates (Millipore, catalog # MZPHN0W10) were placed on a plate washer (Zoom ZW, from Titertek) and pre-wet with 50 μl […] phosphoric acid. Kinase reactions were then stopped upon addition of 24 μl of 2% phosphoric acid to each well and the Minitrak was then used to transfer 40 μl from each well into the pre-wet Millipore 384-well P81 filter plates. Reaction mixtures were incubated for 10 minutes at room temperature in the P81 plates, followed by washing five times with 100 μl/well of 1% phosphoric acid using the Zoom filter washer. The bottom of each filter plate was sealed followed by addition of 20 μl Microscint 40 to each well, sealing the top of the plates with Flashplate cover, and then waiting one hour until reading on the TopCount (PerkinElmer).

AAK1 = target: T2, AAK1 (Homo sapiens, UniProt Q2M2I8); experiment: HEK281 cell-based assay (phospho-mu2 Western blot in transfected HEK293F cells); conditions: HEK293F cells transfected with human AAK1 and AP2M1, 3 hours, read-out: CBA IC50
T2 construct: expressed in transfected cells; host or cells: HEK293F
T2 sequence (Q2M2I8 1-863 isoform Q2M2I8-2): as above
Protocol: HEK293F cells were cultured in media containing DMEM (Gibco, cat. #11965), 10% FBS (SAFC Biosciences, cat. #12103C), 1×GPS (glutamine, penicillin and streptomycin). On day one, cells were plated on a 10 cm dish so that they are ˜80% confluent at time of transfection. Roughly 12 million cells were in a 10 cm dish at time of transfection. On day two, each dish was transfected with 48 ug DNA and 144 ul Lipofectamine 2000 (Invitrogen, cat.#11668-019). The DNA was comprised of a mixture (per 10 cm dish) containing 3 ug AAK1/HA/pIRES (full length human, NCBI accession no. NP_055726.2), 45 μg Flag/AP2MI/pcDNA (full length human), and 1.5 ml OPTI-MEM. The Lipofectamine 2000 is made up of a mixture (per 10 cm dish) containing 144 μl Lipofectamine 2000 and 1.5 ml OPTI-MEM. Each mixture was transferred to individual 15 ml tubes and incubated at room temperature for 5 minutes, and then the two mixes were combined and incubated at room temperature for 20 minutes. Growth media was then aspirated from each 10 cm plate and replaced with 10 ml of DMEM+10% FBS (no GPS). Finally, 3 ml DNA/Lipofectamine mix was added to each 10 cm dish and mix gently followed by incubate of plate overnight at 37° C. and 5% CO2.
On day three, compounds were diluted in 100% DMSO at 1000× final concentration, followed by 3-fold serial dilutions for a total of 5 concentrations tested. Four compounds were tested per 10 cm dish. One ul of each compound dilution was then pipetted into a deep-well, 96-well plate, followed by addition of 500 μl DMEM+0.5% FBS into each well for a 2× final concentration of each compound. Cells were resuspended in a 10 cm dish by simple pipetting (HEK293 cells come off the plate that easy at this point) and then transferred to a 50 ml conical tube and pelleted by centrifugation at 1000 rpm for 5 min. Cell pellets were then resuspended in 2.75 ml DMEM+0.5% FBS per 10 cm dish and 100 μl of cell suspension transferred into each well of 96-well TC plate. Finally, 100 μl of 2× compound diluted in DMEM+0.5% FBS was then added into wells containing cell suspension for a 1× final concentration. Plates were then incubated at 37° C. and 5% CO2 for 3 hours followed by transferring of cell suspensions from each well into 12-tube PCR strips. The PCR strips were spun in a tip rack at 1000 rpm for 5 minutes to pellet cells and media was then removed by pipetting without disturbing the cell pellet.
To prepare for Western Blot analysis, cell pellets were resuspend in 40 ul 1×LDS-PAGE sample buffer (Invitrogen, cat.# NP0008)+2× Halt phophatase and protease inhibitor cocktail (Thermo Scientific, cat.#1861284), followed by sonicating each with microtip sonicator set at 5 for 8-10 seconds. Five ul of 10× NuPage Sample Reducing Agent (with […]) was to each sample followed by heat denaturing at 70 C for 10 min on PCR machine. A total of 10 μl per sample was loaded into each lane of a 4-20% Tris-Glycine Criterion 26-well gel (Biorad, cat.#345-0034) for the phospho-mu2 blot and 10 μl per lane in a 4-12% Bis-Tris (+MES buffer) NuPAGE 26-well gel (Invitrogen, cat.# WG1403BX10) for the mu2 blot. For controls, 2 ng of phospho-mu2 or 20 ng mu2/Flag proteins were loaded in the last well of each gel. After SDS-PAGE, samples on each gel were transferred to PVDF membrane using an iBlot and membranes were blocked for one hour in TBST+5% milk, followed by wash 3× for 5-10 min with TBST. Criterion gels were probed with rabbit anti-phospho-mu2 (1:5000; a rabbit polyclonal antibody produced by New England Peptide and affinity purified at Lexicon) in TBST+5% BSA, whereas, NuPAGE gels were probed with mouse anti-Flag (1:500; Sigma, cat.# F1804) in TBST+5% milk, and these primary antibodies were incubated overnight at 4° C. on a rocker. […]

Row | Compound | pIC50 [1] | pIC50 (AAK1; class symbols) | pIC50 (AAK1; numeric bounds)
1 | COc1ncccc1-c1cnn2ccc(-c3ccn(CCOC(C)C)c(=O)c3)nc12 [1-(2-isopropoxyethyl)-4-(3-(2-methoxypyridin-3-yl)pyrazolo[1,5-a]pyrimidin-5-yl)pyridin-2(1H)-one] | ≥ 7.00 | ≥ 8.00 | 
2 | COCCn1ccc(-c2ccn3ncc(-c4cccnc4OC)c3n2)cc1=O [1-(2-methoxyethyl)-4-(3-(2-methoxypyridin-3-yl)pyrazolo[1,5-a]pyrimidin-5-yl)pyridin-2(1H)-one] | ≥ 8.00 | ≥ 8.00 | 
3 | COc1ncccc1-c1cnn2ccc(-c3ccn(CCC(C)(C)C)c(=O)c3)nc12 [1-(3,3-Dimethylbutyl)-4-(3-(2-methoxypyridin-3-yl)pyrazolo[1,5-a]pyrimidin-5-yl)pyridin-2(1H)-one] | ≥ 8.00 | ≥ 8.00 | 
4 | COc1ccc(F)cc1-c1cnn2ccc(-c3ccn(CCC(C)(C)C)c(=O)c3)nc12 [1-(3,3-Dimethylbutyl)-4-(3-(5-fluoro-2-methoxyphenyl)pyrazolo[1,5-a]pyrimidin-5-yl)pyridin-2(1H)-one] | ≥ 8.00 | ≥ 8.00 | 
5 | COc1ncc(F)cc1-c1cnn2ccc(-c3ccn(CCC(C)(C)C)c(=O)c3)nc12 [1-(3,3-dimethylbutyl)-4-(3-(5-fluoro-2-methoxypyridin-3-yl)pyrazolo[1,5-a]pyrimidin-5-yl)pyridin-2(1H)-one] | ≥ 8.00 | ≥ 8.00 | 
6 | COc1ncccc1-c1cnn2ccc(-c3ccn(CC(C)C)c(=O)c3)nc12 [1-isobutyl-4-(3-(2-methoxypyridin-3-yl)pyrazolo[1,5-a]pyrimidin-5-yl)pyridin-2(1H)-one] | ≥ 8.00 | ≥ 8.00 | 
7 | COc1nc(C)ccc1-c1cnn2ccc(-c3ccn(CCC(C)C)c(=O)c3)nc12 [1-isopentyl-4-(3-(2-methoxy-6-methylpyridin-3-yl)pyrazolo[1,5-a]pyrimidin-5-yl)pyridin-2(1H)-one] | ≥ 8.00 | ≥ 8.00 | 
8 | COc1ncccc1-c1cnn2ccc(-c3ccn(CCC(C)C)c(=O)c3)nc12 [1-isopentyl-4-(3-(2-methoxypyridin-3-yl)pyrazolo[1,5-a]pyrimidin-5-yl)pyridin-2(1H)-one] | ≥ 8.00 | ≥ 8.00 | 
9 | CC(C)CCn1ccc(-c2ccn3ncc(C(F)(F)F)c3n2)cc1=O [1-isopentyl-4-(3-(trifluoromethyl)pyrazolo[1,5-a]pyrimidin-5-yl)pyridin-2(1H)-one] |  | ≥ 7.00 | 
10 | CC(C)CCn1ccc(-c2ccn3nccc3n2)cc1=O [1-isopentyl-4-(pyrazolo[1,5-a]pyrimidin-5-yl)pyridin-2(1H)-one] |  | ≥ 7.00 | 
11 | COc1cc(-c2ccn3ncc(-c4cc(F)ccc4OC)c3n2)ccn1 [3-(5-fluoro-2-methoxyphenyl)-5-(2-methoxypyridin-4-yl)pyrazolo[1,5-a]pyrimidine] | ≥ 6.00 | ≥ 8.00 | 
12 | CC(C)CCn1ccc(-c2ccn3ncc(Cl)c3n2)c(Cl)c1=O [3-chloro-4-(3-chloropyrazolo[1,5-a]pyrimidin-5-yl)-1-isopentylpyridin-2(1H)-one] |  | ≥ 7.00 | 
13 | CCOc1ncccc1-c1cnn2ccc(-c3ccn(CCC(C)C)c(=O)c3)nc12 [4-(3-(2-ethoxypyridin-3-yl)pyrazolo[1,5-a]pyrimidin-5-yl)-1-isopentylpyridin-2(1H)-one] | ≥ 8.00 | ≥ 8.00 | 
14 | COc1nc(C)ccc1-c1cnn2ccc(-c3ccn(CCC(F)(F)F)c(=O)c3)nc12 [4-(3-(2-methoxy-6-methylpyridin-3-yl)pyrazolo[1,5-a]pyrimidin-5-yl)-1-(3,3,3-trifluoropropyl)pyridin-2(1H)-one] | ≥ 7.00 | ≥ 8.00 | 
15 | COc1ncccc1-c1cnn2ccc(-c3ccn(CCN4CCOCC4)c(=O)c3)nc12 [4-(3-(2-methoxypyridin-3-yl)pyrazolo[1,5-a]pyrimidin-5-yl)-1-(2-morpholinoethyl)pyridin-2(1H)-one] | ≥ 8.00 | ≥ 8.00 | 
16 | CC(C)(C)CCn1ccc(-c2ccn3ncc(Br)c3n2)cc1=O [4-(3-bromopyrazolo[1,5-a]pyrimidin-5-yl)-1-(3,3-dimethylbutyl)pyridin-2(1H)-one] |  | ≥ 7.00 | 
17 | C1=C(c2ccn3nccc3n2)CCNC1 [5-(1,2,3,6-tetrahydropyridin-4-yl)pyrazolo[1,5-a]pyrimidine] |  |  | < 6.52
18 | CC(C)Oc1cc(-c2ccn3ncc(CO)c3n2)ccn1 [(5-(2-isopropoxypyridin-4-yl)pyrazolo[1,5-a]pyrimidin-3-yl)methanol] |  |  | < 6.52
19 | COc1ncccc1-c1cnn2ccc(-c3ccc(C(=O)OC(C)C)cc3)nc12 [isopropyl 4-(3-(2-methoxypyridin-3-yl)pyrazolo[1,5-a]pyrimidin-5-yl)benzoate] |  | ≥ 8.00 | 
20 | CC(C)OC(=O)c1ccc(-c2ccn3ncc(Br)c3n2)cc1 [isopropyl 4-(3-bromopyrazolo[1,5-a]pyrimidin-5-yl)benzoate] |  | ≥ 7.00 | 
21 | CC(C)OC(=O)c1ccc(-c2ccn3ncc(I)c3n2)cc1 [isopropyl 4-(3-iodopyrazolo[1,5-a]pyrimidin-5-yl)benzoate] |  | ≥ 7.00 | 
22 | CC(C)OC(=O)c1ccc(-c2ccn3nccc3n2)cc1 [isopropyl 4-(pyrazolo[1,5-a]pyrimidin-5-yl)benzoate] |  | ≥ 6.00 | 
23 | COc1ncccc1-c1cnn2ccc(CCCN(C)C(=O)OC(C)C)nc12 [isopropyl (3-(3-(2-methoxypyridin-3-yl)pyrazolo[1,5-a]pyrimidin-5-yl)propyl)(methyl)carbamate] |  | ≥ 7.00 | 
24 | COc1ncccc1-c1cnn2ccc(CCCCN(C)C(=O)OC(C)C)nc12 [isopropyl (4-(3-(2-methoxypyridin-3-yl)pyrazolo[1,5-a]pyrimidin-5-yl)butyl)(methyl)carbamate] |  | ≥ 7.00 | 
25 | CC(C)OC(=O)N(C)CCCCc1ccn2ncc(Br)c2n1 [isopropyl (4-(3-bromopyrazolo[1,5-a]pyrimidin-5-yl)butyl)(methyl)carbamate] |  |  | < 6.52
26 | CC(C)(C)OC(=O)N1CC=C(c2ccn3nccc3n2)CC1 [tert-butyl 4-(pyrazolo[1,5-a]pyrimidin-5-yl)-5,6-dihydropyridine-1(2H)-carboxylate] |  | ≥ 7.00 | 
